Reference: patent US20260274819A1, “ULK1 INHIBITOR, PREPARATION METHOD THEREFOR AND USE THEREOF” (DOVETREE MEDICINES UNUS, INC., priority 2023, published 2026)

Experiments:
ULK1 = biological target: T1, ULK1 (Homo sapiens, UniProt O75385); assay: Inhibition of ULK1 protein activity (ADP-Glo method); format: biochemical; conditions: ULK1 enzyme, ATP and MBP substrate, 60 min room temperature
T1 construct: purchased Promega V3521
T1 sequence (O75385 1-649 limits assumed): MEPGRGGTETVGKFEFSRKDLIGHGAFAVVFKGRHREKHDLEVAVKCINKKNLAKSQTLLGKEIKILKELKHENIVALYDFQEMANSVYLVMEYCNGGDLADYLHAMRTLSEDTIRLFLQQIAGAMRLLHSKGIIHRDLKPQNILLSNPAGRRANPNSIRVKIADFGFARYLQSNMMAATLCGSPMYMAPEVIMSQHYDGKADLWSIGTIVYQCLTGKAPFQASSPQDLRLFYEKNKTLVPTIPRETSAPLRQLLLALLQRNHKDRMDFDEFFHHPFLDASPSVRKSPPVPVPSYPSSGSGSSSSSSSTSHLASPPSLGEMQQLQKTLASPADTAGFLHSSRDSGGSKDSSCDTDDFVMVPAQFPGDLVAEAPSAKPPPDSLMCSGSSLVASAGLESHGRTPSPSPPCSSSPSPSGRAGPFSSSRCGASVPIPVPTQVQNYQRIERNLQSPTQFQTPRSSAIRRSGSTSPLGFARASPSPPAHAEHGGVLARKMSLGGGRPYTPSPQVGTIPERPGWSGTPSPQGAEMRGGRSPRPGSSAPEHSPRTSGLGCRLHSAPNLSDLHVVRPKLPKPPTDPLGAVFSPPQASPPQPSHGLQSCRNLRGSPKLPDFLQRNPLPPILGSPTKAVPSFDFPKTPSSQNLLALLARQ
Method: In this experiment, the inhibitory effect of a compound on the phosphorylation function of ULK1 was detected by ADP-Glo method. The inhibitory effect of the compound of the present disclosure on the ULK1 target was evaluated based on IC50.
Compound formulation: Using an ECHO (Beckman, ECHO650), the compound was serially diluted 3-fold in DMSO in a 384-well plate (PE, 6007290). A total of 10 concentration points were set, with the maximum concentration of the compound being 10 μM, and 50 nL per well. Positive control wells and negative control wells were added with 50 nL DMSO, respectively.
Reaction process: A 32 nM of ULK1 (Promega, V3521) solution was formulated, and 2.5 μL/well was transferred to the compound test wells and the negative control wells (NC). 2.5 μL/well of 1× Assay buffer was added to the positive control wells (PC). A mixed solution of 100 μM of ATP and 1.86 μM of MBP was formulated, and 2.5 μL/well was transferred to the reaction plate. After centrifugation, the reaction was initiated and incubated at room temperature for 60 min. After the reaction was completed, 5 μL/well of ADP-Glo Reagent (Promega, V9102) was added to the reaction plate. After centrifugation, the reaction was incubated at room temperature for 40 minutes. Finally, 10 μL/well of Kinase Detection Buffer was added, followed by centrifugation and incubation at room temperature for 30 min. The chemiluminescence value was read using Envision (PE, Envision2105).
Assay buffer: a reaction buffer; and Kinase Detection buffer: a detection buffer, both were taken from the ADP-Glodetection kit, purchased from Promega, model V9102. 3. Data analysis
The inhibition ratio of a compound on ULK1 activity was calculated using the following formula:
Inhibition ratio=(sample signal value−negative control signal value)/(positive control signal value−negative control signal value)×100%. The dose-effect curve was fitted using the log(inhibitor) vs. response -Variable slope of the analysis software GraphPad Prism 8, thereby affording the IC50 value of each compound for enzyme activity.

[1] = system: ATG13 phosphorylation level in MIA PaCa-2 cells; assay: Inhibition of ATG13 phosphorylation level in MIA PaCa-2 cells (pATG13 ELISA); format: cell-based; conditions: Homo sapiens, Torin1 100 nM, 24 h incubation, Phospho-Atg13 (ser355)
Method: The inhibitory effect of the compound of the present disclosure on ULK1 was evaluated by testing the inhibitory effect of the compound of the present disclosure on ATG13 phosphorylation level in MIA PaCa-2 cells.
MIA PaCa-2 cells (ATCC, CRM-CRL-1420) were cultured in a complete medium, namely, a DMEM medium (Gibco, 11965-092) containing 10% fetal bovine serum (Corning, 35-081-CV), 2.5% horse serum (Gibco, 16050-122) and 1% double antibody (Gibco, 15140-122). The experiments were performed according to the requirements of the kit (Cell Signaling Technology, 17208C).
Cell plating: MIA PaCa-2 at 80% growth confluence were digested, diluted with the complete medium, and added to a 96-well cell culture plate (Costar, 3596) at 20,000 cells per well, with a volume of 90 μL.
Compound incubation: 5 μL of Torin1 and 5 μL of a serially diluted compound were added to each well so that the highest concentration of the compound in the reaction system was 10 μM. 5-fold serial dilution with 8 concentrations was performed, and the final concentration of Torin1 was 100 nM. The DMSO content in the system was 0.1%. The reaction plate was placed in an incubator at 37° C. in 5% CO2, and was incubated for 24 h. 10 μL of Torin1 was added to the negative control wells (NC) to a final concentration of 100 nM, with a DMSO content of 0.1%.
Reaction detection: After the incubation was completed, the cell plate was washed with a pre-cooled DPBS (Corning, 21-031-CVC) to wash away the compound and medium. 50 μL of pre-cooled cell lysis solution was added to each well, incubated on ice for 10 min. The cell plate was centrifuged, and the supernatant was transferred to an ELISA reaction plate. Simultaneously, 50 μL of Phospho-Atg13 (ser355) rabbit detection antibody was added, followed by incubation at room temperature under shaking for 60 min. After the incubation was completed, the reaction plate was washed with a washing solution for 4 times. 100 μL of TMB substrate was added for color development reaction, followed by incubation under shaded conditions with shaking for 15 min. Finally, 100 μL of stop solution was added to each well. The reaction was terminated by shaking for 10 s, and the absorbance value at 450 nm and 560 nm were collected within 10 min using Envision (Perkin Elmer, EnVision 2105).
The inhibition ratio was calculated by subtracting the absorbance value at […] from the absorbance value at 450 nm for each well. The inhibition ratio formula is as follows: inhibition ratio=(sample signal value−negative control signal value)/(positive control signal value -negative control signal value)×100%.
The dose-effect curve was fitted using the log (inhibitor) vs. response -Variable slope of Graphpad Prism8, thereby affording the IC50 value of each compound for inhibiting ATG13 phosphorylation level.

Compound	IC50 (ULK1) [nM]	IC50 [1] [nM]
CN1CCN(c2ccc(Nc3ncc(C(F)(F)F)c(OC4CCN(C(=O)C5CCC5)CC4)n3)c(C3CC3)c2)CC1 [Example 18]	100 to 1000	–
CN1CCN(c2ccc(Nc3ncc(C(F)(F)F)c(N4CCC(NC(=O)C5CCC5)CC4)n3)c(C3CC3)c2)CC1 [Example 4]	100 to 1000	–
CN1CCN(c2nc(Nc3cccc(NC(=O)N4CCCC4)c3)ncc2C(F)(F)F)CC1=O [Example 22]	> 1000	–
Cc1ccnn1C1CCN(c2nc(Nc3ccc(N4CCN(C)CC4)cc3C3CC3)ncc2C(F)(F)F)CC1 [Example 13]	100 to 1000	–
CN1CCN(c2ccc(Nc3ncc(C(F)(F)F)c(N[C@H]4CCN(C)C4=O)n3)c(C3CC3)c2)CC1 [Example 11]	100 to 1000	–
CN1CCN(c2ccc(Nc3ncc(C(F)(F)F)c(N4CCN(C(=O)C5CCC5)CC4)n3)c(C3CC3)c2)CC1 [Example 3]	100 to 1000	–
CN1CCN(c2ccc(Nc3ncc(C(F)(F)F)c(NC(=O)C4CCC4)n3)c(C3CC3)c2)CC1 [Example 7]	100 to 1000	–
CN1CCN(c2nc(Nc3cccc(CN4CCOCC4)c3)ncc2C(F)(F)F)CC1=O [Example 16]	> 1000	–
CN1CCN(c2ccc(Nc3ncc(C(F)(F)F)c(N4CCC(N5CCCCC5=O)CC4)n3)c(C3CC3)c2)CC1 [Example 8]	> 1000	–
CN1CCN(c2ccc(Nc3ncc(C(F)(F)F)c(N4CCC(N5CCCC5=O)CC4)n3)c(C3CC3)c2)CC1 [Example 6]	> 1000	–
CN1CCN(c2nc(Nc3cccc(Nc4ccc(N)cc4)c3)ncc2C(F)(F)F)CC1=O [Example 21]	100 to 1000	–
CN1CCN(c2ccc(Nc3ncc(C(F)(F)F)c(NC4CCN(C)C(=O)C4)n3)c(C3CC3)c2)CC1 (stereo not shown) [Example 10]	100 to 1000	–
CN1CCN(c2ccc(Nc3ncc(C(F)(F)F)c(OC4CCN(C)C(=O)C4)n3)c(C3CC3)c2)CC1 (stereo not shown) [Example 17]	< 100	–
CN1CCN(c2ccc(Nc3ncc(C(F)(F)F)c(N4CCCN(C(=O)C5CCC5)CC4)n3)c(C3CC3)c2)CC1 [Example 9]	100 to 1000	–
Cc1ccn(C2CN(c3nc(Nc4ccc(N5CCN(C)CC5)cc4C4CC4)ncc3C(F)(F)F)C2)n1 [Example 2]	100 to 1000	–
CN1CCN(c2ccc(Nc3ncc(C(F)(F)F)c(N4CCC(CN5CCCCC5=O)C4)n3)c(C3CC3)c2)CC1 (stereo not shown) [Example 12]	100 to 1000	–

The remaining lines, values ahead:

IC50 (ULK1) [nM]	IC50 [1] [nM]	Compound
100 to 1000	–	CN1CCC(COc2ccc(Nc3ncc(C(F)(F)F)c(OCCCN4CCCCC4=O)n3)c(C3CC3)c2)CC1 [Example 34]
100 to 1000	–	CN1CCN(c2ccc(Nc3ncc(C(F)(F)F)c(N4CCN(C5CCCNC5)C(=O)C4)n3)c(C3CC3)c2)CC1 (stereo not shown) [Example 45]
< 100	–	CN1CCN(c2ccc(Nc3ncc(C(F)(F)F)c(NC4CCC(N5CCCC5=O)CC4)n3)c(C3CC3)c2)CC1 (stereo not shown) [Example 52]
> 1000	–	CN1CCN(c2ccc(Nc3ncc(C(F)(F)F)c(COCCN4CCCCC4=O)n3)c(C3CC3)c2)CC1 [Example 42]
< 100	–	Cc1ccn(C2CCN(c3nc(Nc4ccc(N5CCN(C)CC5)cc4C4CC4)ncc3C(F)(F)F)C2)n1 (stereo not shown) [Example 41]
> 1000	–	CC(=O)Nc1ccc(Nc2cccc(Nc3ncc(C(F)(F)F)c(N4CCN(C)C(=O)C4)n3)c2)cc1 [Example 43]
100 to 1000	–	CN1CCN(c2ccc(Nc3ncc(C(F)(F)F)c(CCN4CCCCC4=O)n3)c(C3CC3)c2)CC1 [Example 28]
> 1000	–	CN1CCN(c2ccc(Nc3ncc(C(F)(F)F)c(N4CCC5(CC4)CN(C)C5)n3)c(C3CC3)c2)CC1 [Example 36]
< 100	100 to 1000	CN1CCN(c2ccc(Nc3ncc(C(F)(F)F)c(N4CC5(CCN(C)C5)C4)n3)c(C3CC3)c2)CC1 [Example 25]
< 100	–	CN1CCN(c2ccc(Nc3ncc(C(F)(F)F)c(N4CCC5(CCNC5=O)CC4)n3)c(C3CC3)c2)CC1 [Example 35]
< 100	–	CN1CCN(c2ccc(Nc3ncc(C(F)(F)F)c(NCCCc4ccccc4C#N)n3)c(C3CC3)c2)CC1 [Example 44]
100 to 1000	–	CN1CCN(c2ccc(Nc3ncc(C(F)(F)F)c(CCNC(=O)C4CCC4)n3)c(C3CC3)c2)CC1 [Example 27]
< 100	–	CN1CCN(c2ccc(Nc3ncc(C(F)(F)F)c(N4C5CCC4C(=O)N(C)C5)n3)c(C3CC3)c2)CC1 (stereo not shown) [Example 39]
< 100	–	CN1CC[C@@H](Oc2ccc(Nc3ncc(C(F)(F)F)c(OCCCN4CCCCC4=O)n3)c(C3CC3)c2)C1 [Example 46]
< 100	–	CN1CCC(n2cc(-c3nc(Nc4ccc(N5CCN(C)CC5)cc4C4CC4)ncc3C(F)(F)F)cn2)CC1 [Example 33]
100 to 1000	–	CN1CCN(c2ccc(Nc3ncc(C(F)(F)F)c(N4CC5(CCCN(C)C5)C4)n3)c(C3CC3)c2)CC1 [Example 50]
< 100	–	CN1CCC2(CCN(c3nc(Nc4ccc(N5CCOCC5)cc4)ncc3C(F)(F)F)CC2)C1 [Example 23]
< 100	–	CN1CCN(c2ccc(Nc3ncc(C(F)(F)F)c(N4CC5(CCN(C)CC5)C4)n3)c(C3CC3)c2)CC1 [Example 48]
< 100	–	CN1CCN(c2ccc(Nc3ncc(C(F)(F)F)c(N4CCC5(CN(C)C5)C4)n3)c(C3CC3)c2)CC1 [Example 38]
< 100	–	CN1CCN(c2ccc(Nc3ncc(C(F)(F)F)c(OCCCC(=O)N4CCOCC4)n3)c(C3CC3)c2)CC1 [Example 47]
